Test results from patent US11261186B2, “Biaryl derivative as GPR120 agonist” (LG CHEM, LTD., priority 2014, dated 2022).

Target: T1, hGPR120 (Homo sapiens, UniProt Q5NUL3)
T1 construct: expressed in transfected cells; host or cells: CHO-K1
T1 sequence (Q5NUL3 1-361): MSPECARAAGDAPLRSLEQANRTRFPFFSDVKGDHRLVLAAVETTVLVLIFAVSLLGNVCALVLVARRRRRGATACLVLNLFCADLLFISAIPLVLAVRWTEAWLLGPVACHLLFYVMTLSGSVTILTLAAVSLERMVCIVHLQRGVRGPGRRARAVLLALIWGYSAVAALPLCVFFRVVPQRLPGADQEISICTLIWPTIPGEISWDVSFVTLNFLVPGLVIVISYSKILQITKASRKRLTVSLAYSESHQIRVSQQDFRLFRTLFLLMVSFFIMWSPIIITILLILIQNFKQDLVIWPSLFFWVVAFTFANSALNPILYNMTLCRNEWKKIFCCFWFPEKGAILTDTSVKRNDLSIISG
Experiment: Measurement of Activity of GPR120 Agonist (Cell-Based Assay), Calcium 5 dye fluorescence
Conditions: CHO-K1 cells expressing Ga16 and hGPR120
How it was run: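 After an 18 h incubation at 37 °C, the transfected CHO-K1 cells (Gα16, hGPR120) received Calcium 5 dye for 1 h; compound dilutions in 0.5% DMSO were then injected and emission at 525 nm recorded, with values given as % of the vehicle response.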

| SMILES | EC50 [nM] |
| --- | --- |
| CC1(C)Cc2cc(Cl)cc(-c3cc(F)c(SCCCC(=O)O)c(F)c3)c2O1 [Example 254, 4-[4-(5-chloro-2,2-dimethyl-2,3-dihydro-benzofuran-7-yl)-2,6-difluoro-phenylsulfanyl]-butyric acid] | 200 to 2000 |
| CN(CCCC(=O)O)c1c(F)cc(-n2ccc3cccc(Cl)c32)cc1F [Example 475, 4-[4-(7-chloroindol-1-yl)-2,6-difluoro-N-methyl-anilino]butanoic acid] | < 200 |
| O=C(O)CCCOc1c(F)cc(-c2csc(OC3CCC3)n2)cc1Cl [Example 426, 4-[2-chloro-4-(2-cyclobutoxy-thiazol-4-yl)-6-fluoro-phenoxy]-butyric acid] | < 200 |
| O=C(O)CCc1ccc2cc(-c3cccc(Oc4ccccc4F)n3)ccc2c1 [Example 152, 3-{6-[6-(2-fluoro-phenoxy)-pyridin-2-yl]-naphthalen-2-yl}-propanoic acid] | 200 to 2000 |
| CC(C)(CCCC(=O)O)c1c(F)cc(-c2cccnc2OC2CCCC2)cc1F [Example 162, 5-[4-(2-cyclopentyloxy-pyridin-3-yl)-2,6-difluoro-phenyl]-5-methyl-hexanoic acid] | 200 to 2000 |
| CC(C)COc1ccnc(-c2cc(F)c(N3CCC(CC(=O)O)C3)c(F)c2)n1 (stereo not drawn) [Example 502, 2-{1-[2,6-difluoro-4-(4-isobutoxy-pyrimidin-2-yl)phenyl]pyrrolidin-3-yl}acetic acid] | 200 to 2000 |
| O=C(O)COCC(F)(F)c1ccc(-c2cccc(OC3CCC3)n2)cc1 [Example 174, {2-[4-(6-cyclobutoxy-pyridin-2-yl)-phenyl]-2,2-difluoro-ethoxy}-acetic acid] | 200 to 2000 |
| O=C(O)CC1CCN(c2c(F)cc(-n3ncc4ccc(OC5CCC5)cc43)cc2F)C1 (stereo not drawn) [Example 494, 2-[1-[4-[6-(cyclobutoxy)indazol-1-yl]-2,6-difluoro-phenyl]pyrrolidin-3-yl]acetic acid] | 200 to 2000 |
| CC(CCCC(=O)O)c1c(F)cc(-c2cc(Cl)cc3c2OC(C)(C)C3)cc1F (stereo not drawn) [Example 256, 5-[4-(5-chloro-2,2-dimethyl-2,3-dihydro-benzofuran-7-yl)-2,6-difluoro-phenyl]-hexanoic acid] | 200 to 2000 |
| Oc1cc(CNc2c(F)cc(-c3cccnc3OC3CCCC3)cc2F)on1 [Example 84, 5-[[4-[2-(cyclopentoxy)-3-pyridyl]-2,6-difluoro-anilino]methyl]isoxazol-3-ol] | < 200 |
| CCN(CCCCC(=O)O)c1c(F)cc(-c2cccnc2OC2CCCC2)cc1F [Example 95, 5-[4-[2-(cyclopentoxy)-3-pyridyl]-N-ethyl-2,6-difluoro-anilino]pentanoic acid] | 200 to 2000 |
| O=C(O)CCCOc1c(F)cc(-c2csc(OC3CCC3)n2)cc1F [Example 394, 4-[4-[2-(cyclobutoxy)thiazol-4-yl]-2,6-difluoro-phenoxy]butanoic acid] | < 200 |
| O=C(O)CCCC1(c2c(F)cc(-c3cccc(OC4CCC4)n3)cc2F)CC1 [Example 168, 4-{1-[4-(6-cyclobutoxy-pyridin-2-yl)-2,6-difluoro-phenyl]-cyclopropyl}-butyric acid] | < 200 |
| O=C(O)CCCOc1ccc(-c2cccc(SC3CCC3)n2)cc1F [Example 540, 4-[4-(6-cyclobutylsulfanyl-pyridin-2-yl)-2-fluoro-phenoxy]-butyric acid] | < 200 |
| CC(C)Sc1cccc(-c2cc(F)c(OCCCC(=O)O)c(Cl)c2)n1 [Example 404, 4-[2-chloro-6-fluoro-4-(6-isopropylsulfanyl-pyridin-2-yl)-phenoxy]-butyric acid] | < 200 |
| CC(C)COc1nc(-c2cc(F)c(N3CCC(CC(=O)O)C3)c(F)c2)ncc1F (stereo not drawn) [Example 594, {1-[2,6-difluoro-4-(5-fluoro-4-isobutoxy-pyrimidin-2-yl)-phenyl]-pyrrolidin-3-yl}-acetic acid] | 200 to 2000 |
| O=C(O)CCCOc1c(F)cc(-c2nccc(OC3CCC3)n2)cc1Cl [Example 422, 4-[2-chloro-4-(4-cyclobutoxy-pyrimidin-2-yl)-6-fluoro-phenoxy]-butyric acid] | < 200 |
| CC(C)(CCCC(=O)O)c1ccc(-c2cccnc2OC2CCCC2)cc1 [Example 160, 5-[4-(2-cyclopentyloxy-pyridin-3-yl)-phenyl]-5-methyl-hexanoic acid] | < 200 |
| O=C(O)CCCOc1c(F)cc(-n2ccc3ccc(OC4CCC4)cc32)cc1F [Example 476, 4-[4-[6-(cyclobutoxy)indol-1-yl]-2,6-difluoro-phenoxy]butanoic acid] | < 200 |
| O=C(O)CCC1CCc2cc(-c3cccc(OCC4CC4)c3)ccc2O1 (stereo not drawn) [Example 447, 3-[6-[3-(cyclopropylmethoxy)phenyl]chroman-2-yl]propanoic acid] | < 200 |
| COc1ccc(-c2cc(F)c(OCCCC(=O)O)c(F)c2)cc1OCC1CC1 [Example 526, 4-(3′-cyclopropylmethoxy-3,5-difluoro-4′-methoxy-biphenyl-4-yloxy)-butyric acid] | < 200 |
| Cc1onc(COCC2CC2)c1-c1cc(F)c(OCCCC(=O)O)c(F)c1 [Example 390, 4-[4-[3-(cyclopropylmethoxymethyl)-5-methyl-isoxazol-4-yl]-2,6-difluoro-phenoxy]butanoic acid] | > 20000 |

Further lines, results first:

| EC50 [nM] | SMILES |
| --- | --- |
| 200 to 2000 | CCOc1csc(-c2cc(F)c(N3CCC(CC(=O)O)CC3)c(F)c2)n1 [Example 367, {1-[4-(4-ethoxy-thiazol-2-yl)-2,6-difluoro-phenyl]-piperidin-4-yl}acetic acid] |
| 200 to 2000 | CN(CCCC(=O)O)c1c(F)cc(-c2cccc(OCC3CCC3)c2)cc1F [Example 520, 4-[(3′-cyclobutylmethoxy-3,5-difluoro-biphenyl-4-yl)-methyl-amino]-butyric acid] |
| < 200 | O=C(O)CC1CN(c2c(F)cc(-c3cccnc3SC3CCCC3)cc2F)C1 [Example 112, 2-[1-[4-(2-cyclopentylsulfanyl-3-pyridyl)-2,6-difluoro-phenyl]azetidin-3-yl]acetic acid] |
| < 200 | CCCSc1ncccc1-c1cc(F)c(N2CCC(CC(=O)O)CC2)c(F)c1 [Example 117, 2-[1-[2,6-difluoro-4-(2-propylsulfanyl-3-pyridyl)phenyl]-4-piperidyl]acetic acid] |
| 200 to 2000 | COc1cncc(-c2cc(F)c(N3CCC(CC(=O)O)CC3)c(F)c2)n1 [Example 340, 2-[1-[2,6-difluoro-4-(6-methoxypyrazin-2-yl)phenyl]-4-piperidyl]acetic acid] |
| 200 to 2000 | CCN(CCCC(=O)O)c1c(F)cc(-c2cccnc2SC2CCC2)cc1F [Example 224, 4-{[4-(2-cyclobutylsulfanyl-pyridin-3-yl)-2,6-difluoro-phenyl]-ethyl-amino}-butyric acid] |
| < 200 | CN(CCCCC(=O)O)c1c(F)cc(-c2cccc(OCC3CC3)n2)cc1F [Example 101, 5-[4-[6-(cyclopropylmethoxy)-2-pyridyl]-2,6-difluoro-N-methyl-anilino]pentanoic acid] |
| < 200 | CCOc1cncc(-c2cc(F)c(OCCCC(=O)O)c(Cl)c2)n1 [Example 437, 4-[2-chloro-4-(6-ethoxy-pyrazin-2-yl)-6-fluoro-phenoxy]-butyric acid] |
| < 200 | O=C(O)CC1CCN(c2c(F)cc(-c3cncc(Oc4ccc(F)cc4)n3)cc2F)CC1 [Example 513, 2-[1-[2,6-difluoro-4-[6-(4-fluorophenoxy)pyrazin-2-yl]phenyl]-4-piperidyl]acetic acid] |
| < 200 | O=C(O)CCCOc1c(F)cc(-c2cncc(OCC3CC3)n2)cc1F [Example 434, 4-[4-(6-cyclopropylmethoxy-pyrazin-2-yl)-2,6-difluoro-phenoxy]-butyric acid] |
| 200 to 2000 | CCOc1cccc(-c2cc(F)c(N3CCC(CCC(=O)O)CC3)c(F)c2)n1 [Example 622, 3-{1-[4-(6-ethoxy-pyridin-2-yl)-2,6-difluoro-phenyl]-piperidin-4-yl}-propionic acid] |
| < 200 | O=C(O)CC1CCN(c2c(F)cc(-c3cncc(C4CCCC4)n3)cc2F)CC1 [Example 363, 2-[1-[4-(6-cyclopentylpyrazin-2-yl)-2,6-difluoro-phenyl]-4-piperidyl]acetic acid] |
| 2000 to 20000 | COC(c1cccc(-c2cc(F)c(N3CCC(CC(=O)O)CC3)c(F)c2)n1)C1CC1 (stereo not drawn) [Example 318, 2-[1-[4-[6-[cyclopropyl(methoxy)methyl]-2-pyridyl]-2,6-difluoro-phenyl]-4-piperidyl]acetic acid] |
| < 200 | O=C(O)CC1CCN(c2c(F)cc(-c3cncc(C4CCC4)n3)cc2F)CC1 [Example 374, 2-[1-[4-(6-cyclobutylpyrazin-2-yl)-2,6-difluoro-phenyl]-4-piperidyl]acetic acid] |
| 2000 to 20000 | Cc1cc(Oc2ccc(C(F)(F)F)cc2)nc(-c2cc(F)c(N3CCC(CC(=O)O)CC3)c(F)c2)n1 [Example 612, 2-[1-[2,6-difluoro-4-[4-methyl-6-[4-(trifluoromethyl)phenoxy]pyrimidin-2-yl]phenyl]-4-piperidyl]acetic acid] |
| < 200 | O=C(O)CCCOc1c(F)cc(-c2cccc(SC3CCC3)c2)cc1F [Example 409, 4-(3′-cyclobutylsulfanyl-3,5-difluoro-biphenyl-4-yloxy)-butyric acid] |
| 200 to 2000 | O=C(O)CCC1CC1c1c(F)cc(-c2cccc3c2OC2(CCCC2)C3)cc1F (stereo not drawn) [Example 443, 3-[2-(2,6-difluoro-4-spiro[3H-benzofuran-2,1′-cyclopentan]-7-yl-phenyl)cyclopropyl]propanoic acid] |
